Results published in US20100022483A1, “Substituted Tetracycline Compounds” (Paratek Pharmaceuticals, Inc., priority 2008, published 2010).
Converted amounts (≈) assume the structure as drawn. Read-outs that look alike come from different tables or passages of the source.

Key:
gram negative bacteria = experiment: In vitro anti-bacterial activity assay (broth dilution MIC), gram negative bacteria; format: cell-based, E. coli
How it was run: (§1)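 Broth dilution MIC following CLSI M7-A2: compounds serially diluted, log-phase test strains added to final ~5×10^5 CFU/ml, incubated ~18 hours at 35° C in ambient air. Plates read on microplate reader or visually; MIC is lowest concentration inhibiting growth.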

gram positive bacteria = experiment: In vitro anti-bacterial activity assay (broth dilution MIC), gram positive bacteria; format: cell-based, S. aureus; conditions: 18 h
How it was run: as §1

3T3 fibroblast cells = experiment: In vitro phototoxicity assay (neutral red; UV light-treated vs dark control plates); format: cell-based; conditions: for Photo Toxicity UV Tox50: UV light 50 minutes; for Photo Toxicity Dark Tox50: dark control plate
How it was run: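 Neutral red viability readout (A535 after EtOH/acetic acid extraction) compares paired plates: one exposed 50 min to UV at 1.6–1.8 mW/cm^2, one held in darkness, both dosed with compound in HBSS and recovered overnight. 3T3 fibroblast cells used; phototoxicity taken as the difference.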

in vitro = format: cell-based; conditions: Chinese hamster, Cytotox. CHO-K1
[1] = Mammalian cytotoxicity assay (resazurin), COS-1 cells; format: cell-based; conditions: African green monkey, read-out: Cytotox. COS-1
How it was run: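 Cells seeded overnight at 37° C., 5% CO2, then exposed to serial compound dilutions for 24 hours. Medium replaced with resazurin (0.042 mg/ml in PBS with Ca and Mg) for 2 hours plus 30 minutes dark at room temperature; fluorescence read at ex 535/em 590 nm, IC50 taken as 50% growth inhibition.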

[2] = Escherichia coli, 18 h, E. coli D1 209, read-out: Median MIC's G− E. coli D1 209
[3] = Escherichia coli, 18 h, E. coli MG 1655, read-out: Median MIC's G− E. coli MG 1655
[4] = Escherichia coli, ATCC25922, 18 h, E. coli ATCC 25922, read-out: Median MIC's G− E. coli ATCC 25922
[5] = Pseudomonas aeruginosa, 18 h, P. aeruginosa K201 PAO6609, read-out: Median MIC's G− P. aeruginosa K201 PAO6609
[6] = Staphylococcus aureus, S. aureus MRSA5, read-out: Median MIC's G+ S. aureus MRSA5
[7] = Staphylococcus aureus, S. aureus RN450, read-out: Median MIC's G+ S. aureus RN450
[8] = Streptococcus pneumoniae, S. pneumoniae 157E-Strep, read-out: Median MIC's G+ S. pneumoniae 157E-Strep

SMILES	MIC (gram negative bacteria; [2]) [µg/mL]	MIC (gram negative bacteria; [3]) [µg/mL]	MIC (gram negative bacteria; [4]) [µg/mL]	MIC (gram negative bacteria; [5]) [µg/mL]	MIC (gram positive bacteria; [6]) [µg/mL]	MIC (gram positive bacteria; [7]) [µg/mL]	MIC (gram positive bacteria; [8]) [µg/mL]	Photo Toxicity UV Tox50 (3T3 fibroblast cells) [µM]	Photo Toxicity Dark Tox50 (3T3 fibroblast cells) [µM]	IC50 at 24 h (in vitro) [µM]	IC50 at 24 h [1] [µM]
CN(C)[C@@H]1C(O)=C(C(N)=O)C(=O)[C@@]2(O)C(O)=C3C(=O)c4c(O)ccc(-c5cccc(C(=O)NCCN6CCCC6)c5)c4C[C@H]3C[C@@H]12 [CR]	64 (≈ 101 µM)	16 (≈ 25.4 µM)	64 (≈ 101 µM)	64 (≈ 101 µM)	16 (≈ 25.4 µM)	1 (≈ 1.59 µM)	0.25 (≈ 0.396 µM)	>127.91	>127.91	> 39.6	> 39.6
CN(C)CCNCc1cccc(-c2ccc(O)c3c2C[C@H]2C[C@H]4[C@H](N(C)C)C(O)=C(C(N)=O)C(=O)[C@@]4(O)C(O)=C2C3=O)c1 [CS]	64 (≈ 108 µM)	2 (≈ 3.39 µM)	4 (≈ 6.77 µM)	64 (≈ 108 µM)	8 (≈ 13.5 µM)	0.06 (≈ 0.102 µM)	0.06 (≈ 0.102 µM)	>139.98	>139.98	> 140	> 140
CN(C)CCN(C)Cc1cccc(-c2ccc(O)c3c2C[C@H]2C[C@H]4[C@H](N(C)C)C(O)=C(C(N)=O)C(=O)[C@@]4(O)C(O)=C2C3=O)c1 [CT]	4 (≈ 6.61 µM)	2 (≈ 3.31 µM)	2 (≈ 3.31 µM)	64 (≈ 106 µM)	4 (≈ 6.61 µM)	0.0625 (≈ 0.103 µM)	0.06 (≈ 0.0992 µM)	>126.03	>126.03	> 126	> 126
CN(C)CCCN(C)Cc1cccc(-c2ccc(O)c3c2C[C@H]2C[C@H]4[C@H](N(C)C)C(O)=C(C(N)=O)C(=O)[C@@]4(O)C(O)=C2C3=O)c1 [CU]	32 (≈ 51.7 µM)	8 (≈ 12.9 µM)	8 (≈ 12.9 µM)	32 (≈ 51.7 µM)	16 (≈ 25.9 µM)	0.5 (≈ 0.808 µM)	0.125 (≈ 0.202 µM)	>123.6	>123.6	> 124	> 124
CN(C)CCCCNCc1cccc(-c2ccc(O)c3c2C[C@H]2C[C@H]4[C@H](N(C)C)C(O)=C(C(N)=O)C(=O)[C@@]4(O)C(O)=C2C3=O)c1 [CV]	64 (≈ 103 µM)	64 (≈ 103 µM)	64 (≈ 103 µM)	64 (≈ 103 µM)	32 (≈ 51.7 µM)	2 (≈ 3.23 µM)	4 (≈ 6.46 µM)	>134.59	>134.59	> 135	> 135
CN(C)CCCCN(C)Cc1cccc(-c2ccc(O)c3c2C[C@H]2C[C@H]4[C@H](N(C)C)C(O)=C(C(N)=O)C(=O)[C@@]4(O)C(O)=C2C3=O)c1 [CW]	4 (≈ 6.32 µM)	2 (≈ 3.16 µM)	2 (≈ 3.16 µM)	64 (≈ 101 µM)	8 (≈ 12.6 µM)	0.06 (≈ 0.0948 µM)	0.06 (≈ 0.0948 µM)	>132.05	>132.05	> 132	> 132
CN(C)CCCNCc1cccc(-c2ccc(O)c3c2C[C@H]2C[C@H]4[C@H](N(C)C)C(O)=C(C(N)=O)C(=O)[C@@]4(O)C(O)=C2C3=O)c1 [CX]	32 (≈ 52.9 µM)	16 (≈ 26.5 µM)	16 (≈ 26.5 µM)	64 (≈ 106 µM)	8 (≈ 13.2 µM)	0.5 (≈ 0.827 µM)	0.25 (≈ 0.413 µM)	>137.23	>137.23	> 137	> 137
CN(C)CCNCc1ccc(-c2ccc(O)c3c2C[C@H]2C[C@H]4[C@H](N(C)C)C(O)=C(C(N)=O)C(=O)[C@@]4(O)C(O)=C2C3=O)o1 [CY]	64 (≈ 110 µM)	2 (≈ 3.44 µM)	4 (≈ 6.89 µM)	64 (≈ 110 µM)	64 (≈ 110 µM)	0.25 (≈ 0.431 µM)	0.06 (≈ 0.103 µM)	>142.02	>142.02	> 142	> 142
CN(C)CCN(C)Cc1ccc(-c2ccc(O)c3c2C[C@H]2C[C@H]4[C@H](N(C)C)C(O)=C(C(N)=O)C(=O)[C@@]4(O)C(O)=C2C3=O)o1 [CZ]	16 (≈ 26.9 µM)	4 (≈ 6.73 µM)	4 (≈ 6.73 µM)	64 (≈ 108 µM)	16 (≈ 26.9 µM)	0.06 (≈ 0.101 µM)	0.06 (≈ 0.101 µM)	>137.77	>137.77	> 13.8	> 13.8
CN1CCN(C(=O)c2cccc(-c3ccc(O)c4c3C[C@H]3C[C@H]5[C@H](N(C)C)C(O)=C(C(N)=O)C(=O)[C@@]5(O)C(O)=C3C4=O)c2)CC1 [C]	64 (≈ 104 µM)	32 (≈ 51.9 µM)	8 (≈ 13 µM)	64 (≈ 104 µM)	64 (≈ 104 µM)	0.25 (≈ 0.405 µM)	0.06 (≈ 0.0973 µM)	>137.76	>137.76	> 138	> 138
CN(C)[C@@H]1C(O)=C(C(N)=O)C(=O)[C@@]2(O)C(O)=C3C(=O)c4c(O)ccc(-c5cccc(C(=O)NCC[N+](C)(C)C)c5)c4C[C@H]3C[C@@H]12 [DA]	64	64	64	64	64	4	32	>123.61	>123.61	> 1.23	> 1.23
CN(C)[C@@H]1C(O)=C(C(N)=O)C(=O)[C@@]2(O)C(O)=C3C(=O)c4c(O)ccc(-c5cccc(C(=O)NCCN6CCOCC6)c5)c4CC3CC12 (stereo partly drawn) [DC]	64 (≈ 99 µM)	8 (≈ 12.4 µM)	16 (≈ 24.7 µM)	64 (≈ 99 µM)	4 (≈ 6.19 µM)	0.125 (≈ 0.193 µM)	0.125 (≈ 0.193 µM)	>136.18	>136.18	> 13.6	> 13.6
COCCCNC(=O)c1cccc(-c2ccc(O)c3c2CC2CC4[C@H](N(C)C)C(O)=C(C(N)=O)C(=O)[C@@]4(O)C(O)=C2C3=O)c1 (stereo partly drawn) [DD]	64 (≈ 106 µM)	64 (≈ 106 µM)	64 (≈ 106 µM)	64 (≈ 106 µM)	2 (≈ 3.3 µM)	0.0625 (≈ 0.103 µM)	0.06 (≈ 0.0991 µM)	>152.62	>152.62	> 15.3	> 15.3
COCCCOCCN(C)Cc1cccc(-c2ccc(O)c3c2C[C@H]2C[C@H]4[C@H](N(C)C)C(O)=C(C(N)=O)C(=O)[C@@]4(O)C(O)=C2C3=O)c1 [DE]	2 (≈ 3.08 µM)	8 (≈ 12.3 µM)	2 (≈ 3.08 µM)	64 (≈ 98.5 µM)	2 (≈ 3.08 µM)	0.06 (≈ 0.0923 µM)	0.06 (≈ 0.0923 µM)	>200	>200	> 20	> 20
COCCNC(=O)c1ccc(-c2ccc(O)c3c2C[C@H]2C[C@H]4[C@H](N(C)C)C(O)=C(C(N)=O)C(=O)[C@@]4(O)C(O)=C2C3=O)o1 [DF]	64 (≈ 110 µM)	32 (≈ 55 µM)	16 (≈ 27.5 µM)	64 (≈ 110 µM)	16 (≈ 27.5 µM)	0.0625 (≈ 0.107 µM)	0.06 (≈ 0.103 µM)	>200	>200	> 20	> 20
CN(C)[C@@H]1C(O)=C(C(N)=O)C(=O)[C@@]2(O)C(O)=C3C(=O)c4c(O)ccc(-c5cccc(CCCN)c5)c4C[C@H]3C[C@@H]12 [DG]	32 (≈ 58.4 µM)	32 (≈ 58.4 µM)	32 (≈ 58.4 µM)	64 (≈ 117 µM)	64 (≈ 117 µM)	0.5 (≈ 0.913 µM)	0.125 (≈ 0.228 µM)	64.8	>200	> 20	> 20
CN(C)CCCNC(=O)c1ccc(-c2ccc(O)c3c2C[C@H]2C[C@H]4[C@H](N(C)C)C(O)=C(C(N)=O)C(=O)[C@@]4(O)C(O)=C2C3=O)o1 [DH]	64 (≈ 105 µM)	64 (≈ 105 µM)	64 (≈ 105 µM)	64 (≈ 105 µM)	64 (≈ 105 µM)	4 (≈ 6.57 µM)	2 (≈ 3.29 µM)	>200	>200	> 200	> 200
CN(C)[C@@H]1C(O)=C(C(N)=O)C(=O)[C@@]2(O)C(O)=C3C(=O)c4c(O)ccc(-c5cccc(CCCN6CCCCC6)c5)c4C[C@H]3C[C@@H]12 [DI]	2 (≈ 3.25 µM)	4 (≈ 6.5 µM)	1 (≈ 1.62 µM)	64 (≈ 104 µM)	2 (≈ 3.25 µM)	0.0625 (≈ 0.102 µM)	0.06 (≈ 0.0974 µM)	45.65	>200	54.1	59.4
